Consider 21 molecules from US20150133426A1, “SUBSTITUTED PYRROLOPYRIMIDINES” (BAYER PHARMA AKTIENGESELLSCHAFT, priority 2012, published 2015).

This assay deals with T1, human full-length MKNK1 (Homo sapiens, UniProt Q9BUB5, T385D).
T1 construct: purchased Carna Biosciences 02-145; host or cells: insect cells, baculovirus expression system
T1 sequence (Q9BUB5 1-424 isoform Q9BUB5-2 T344D): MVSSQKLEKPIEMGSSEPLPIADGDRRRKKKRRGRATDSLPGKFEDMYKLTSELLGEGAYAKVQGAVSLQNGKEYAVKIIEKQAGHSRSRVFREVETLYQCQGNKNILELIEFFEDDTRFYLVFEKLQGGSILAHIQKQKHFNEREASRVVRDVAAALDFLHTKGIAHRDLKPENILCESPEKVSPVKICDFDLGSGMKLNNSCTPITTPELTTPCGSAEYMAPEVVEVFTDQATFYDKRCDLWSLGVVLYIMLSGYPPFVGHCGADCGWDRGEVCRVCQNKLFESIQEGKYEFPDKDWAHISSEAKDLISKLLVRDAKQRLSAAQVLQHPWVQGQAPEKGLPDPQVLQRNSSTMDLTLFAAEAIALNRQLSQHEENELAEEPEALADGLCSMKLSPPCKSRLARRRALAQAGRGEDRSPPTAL
Description: MKNK1 kinase high ATP assay (TR-FRET). To be noted: high ATP (2 mM), 15 min preincubation with enzyme, GST-MKNK1 (T344D). It is filed as biochemical. The procedure:
MKNK1-inhibitory activity at high ATP of compounds of the present invention after their preincubation with MKNK1 was quantified employing the TR-FRET-based MKNK1 high ATP assay as described in the following paragraphs.
A recombinant fusion protein of Glutathione-S-Transferase (GST, N-terminally) and human full-length MKNK1 (amino acids 1-424 and T344D of accession number BAA 19885.1), expressed in insect cells using baculovirus expression system and purified via glutathione sepharose affinity chromatography, was purchased from Carna Biosciences (product no 02-145) and used as enzyme. As substrate for the kinase reaction the biotinylated peptide biotin-Ahx-IKKRKLTRRKSLKG (C-terminus in amide form) was used, which can be purchased e.g. from the company Biosyntan (Berlin-Buch, Germany).
For the assay 50 nL of a 100fold concentrated solution of the test compound in DMSO was pipetted into a black low volume 384well microtiter plate (Greiner Bio-One, Frickenhausen, Germany), 2 μL of a solution of MKNK1 in aqueous assay buffer [50 mM HEPES pH 7.5, 5 mM MgCl2, 1.0 mM dithiothreitol, 0.005% (v/v) Nonidet-P40 (Sigma)] was added and the mixture was incubated for 15 min at 22° C. to allow pre-binding of the test compounds to the enzyme before the start of the kinase reaction. Then the kinase reaction was started by the addition of 3 μL of a solution of adenosine-tri-phosphate (ATP, 3.3 mM=>final conc. in the 5 μL assay volume is 2 mM) and substrate (0.1 μM=>final conc. in the 5 μL assay volume is 0.06 μM) in assay buffer and the resulting mixture was incubated for a reaction time of 30 min at 22° C. The concentration of MKNK1 was adjusted depending of the activity of the enzyme lot and was chosen appropriate to have the assay in the linear range, typical concentrations were in the range of 0.003 μg/mL. The reaction was stopped by the addition of 5 μL of a solution of TR-FRET detection reagents (5 nM streptavidine-XL665 [Cisbio Bioassays, Codolet, France] and 1 nM anti-ribosomal protein […] (pSer236)-antibody from Invitrogen [#44921G] and 1 nM LANCE EU-W1024 labeled ProteinG [Perkin-Elmer, product no. AD0071]) in an aqueous EDTA-solution (100 mM EDTA, 0.1% (w/v) bovine serum albumin in 50 mM HEPES pH 7.5).
The resulting mixture was incubated for 1 h at 22° C. to allow the formation of complex between the phosphorylated biotinylated peptide and the detection reagents. Subsequently the amount of phosphorylated substrate was evaluated by measurement of the resonance energy transfer from the Eu-chelate to the streptavidine-XL. Therefore, the fluorescence emissions at 620 nm and 665 nm after excitation at 350 nm were measured in a TR-FRET reader, e.g. a Rubystar (BMG Labtechnologies, Offenburg, Germany) or a Viewlux (Perkin-Elmer). The ratio of the emissions at 665 nm and at […] was taken as the measure for the amount of phosphorylated substrate. The data were normalised (enzyme reaction without inhibitor=0% inhibition, all other assay components but no enzyme=100% inhibition).
As a reminder, the IC50 is the concentration at which inhibition is half-maximal. `CCOC(=O)C1CCc2[nH]c3ncnc(Nc4ccc5[nH]ncc5c4)c3c2C1` (racemic) [Example 5, (RS)-Ethyl 4-(1H-indazol-5-ylamino)-6,7,8,9-tetrahydro-5H-pyrimido[4,5-b]indole-6-carboxylate] returned an IC50 of 18 nM.

Molecule `O=C(O)C1CCc2[nH]c3ncnc(Nc4ccc5[nH]ncc5c4)c3c2C1` (racemic) [Example 6, (RS)-4-(1H-Indazol-5-ylamino)-6,7,8,9-tetrahydro-5H-pyrimido[4,5-b]indole-6-carboxylic acid] yielded an IC50 of 89 nM.

In turn, `CCNC(=O)C1CCc2[nH]c3ncnc(Nc4ccc5[nH]ncc5c4)c3c2C1` (racemic) [Example 7, (RS)—N-Ethyl-4-(1H-indazol-5-ylamino)-6,7,8,9-tetrahydro-5H-pyrimido[4,5-b]indole-6-carboxamide] gave an IC50 of 20 nM.

For the molecule `CS(=O)(=O)CCCNC(=O)C1CCc2[nH]c3ncnc(Nc4ccc5[nH]ncc5c4)c3c2C1` (racemic) [Example 14, (RS)-4-(1H-Indazol-5-ylamino)-N-[3-(methylsulfonyl)propyl]-6,7,8,9-tetrahydro-5H-pyrimido[4,5-b]indole-6-carboxamide], the 50% inhibitory concentration (IC50) turned out to be 8 nM.

In turn, `O=C(NC1CC1)C1CCc2[nH]c3ncnc(Nc4ccc5[nH]ncc5c4)c3c2C1` (racemic) [Example 15, (RS)—N—Cyclopropyl-4-(1H-indazol-5-ylamino)-6,7,8,9-tetrahydro-5H-pyrimido[4,5-b]indole-6-carboxamide] displayed an IC50 of 19 nM.

On to `O=C(Nc1ccccc1)C1CCc2[nH]c3ncnc(Nc4ccc5[nH]ncc5c4)c3c2C1` (racemic) [Example 16, (RS)-4-(1H-Indazol-5-ylamino)-N-phenyl-6,7,8,9-tetrahydro-5H-pyrimido[4,5-b]indole-6-carboxamide], for which the IC50 was 15 nM.

In turn, `O=C(C1CCc2[nH]c3ncnc(Nc4ccc5[nH]ncc5c4)c3c2C1)N1CC(F)(F)C1` (racemic) [Example 17, (RS)-(3,3-Difluoroazetidin-1-yl)[4-(1H-indazol-5-ylamino)-6,7,8,9-tetrahydro-5H-pyrimido[4,5-b]indol-6-yl]methanone] came in with an IC50 of 46 nM.

With `COc1cc(Cl)c(Cl)cc1Nc1ncnc2[nH]c3c(c12)CC(C(=O)O)CC3` (racemic) [Example 18, (RS)-4-[(4,5-Dichloro-2-methoxyphenyl)amino]-6,7,8,9-tetrahydro-5H-pyrimido[4,5-b]indole-6-carboxylic acid], the IC50 was 24 nM.

The molecule `COc1cc(Cl)c(Cl)cc1Nc1ncnc2[nH]c3c(c12)CC(C(=O)NC1CC1)CC3` (racemic) [Example 20, (RS)—N-Cyclopropyl-4-[(4,5-dichloro-2-methoxyphenyl)amino]-6,7,8,9-tetrahydro-5H-pyrimido[4,5-b]indole-6-carboxamide] had an IC50 of 6 nM.

`CCNC(=O)C1CCc2[nH]c3ncnc(Nc4cc(Cl)c(Cl)cc4OC)c3c2C1` (racemic) [Example 21, (RS)-4-[(4,5-Dichloro-2-methoxyphenyl)amino]-N-ethyl-6,7,8,9-tetrahydro-5H-pyrimido[4,5-b]indole-6-carboxamide]: the IC50 was found to be 12 nM.

On to `COc1cc(Cl)c(Cl)cc1Nc1ncnc2[nH]c3c(c12)CC(C(=O)Nc1ccccc1)CC3` (racemic) [Example 22, (RS)-4-[(4,5-Dichloro-2-methoxyphenyl)amino]-N-phenyl-6,7,8,9-tetrahydro-5H-pyrimido[4,5-b]indole-6-carboxamide], for which the IC50 is 313 nM.

Regarding `CC(C)Oc1cc(F)ccc1Nc1ncnc2c1c1c(n2C)CCC(C(=O)NCCCS(C)(=O)=O)C1` (racemic) [Example 25, (RS)-4-[(4-Fluoro-2-isopropoxyphenyl)amino]-9-methyl-N-[3-(methylsulfonyl)propyl]-6,7,8,9-tetrahydro-5H-pyrimido[4,5-b]indole-6-carboxamide], the midpoint of inhibition, the IC50, lay at 381 nM.

Molecule `Cn1c2c(c3c(Nc4ccc5[nH]ncc5c4)ncnc31)CC(C(=O)NCCCS(C)(=O)=O)CC2` (racemic) [Example 26, (RS)-4-(1H-Indazol-5-ylamino)-9-methyl-N-[3-(methylsulfonyl)propyl]-6,7,8,9-tetrahydro-5H-pyrimido[4,5-b]indole-6-carboxamide] had an IC50 of 1740 nM.

On to `CC(C)Oc1cc(F)ccc1Nc1ncnc2[nH]c3c(c12)CC(C(=O)NCCCS(C)(=O)=O)CC3` (racemic) [Example 28, (RS)-4-{[4-Fluoro-2-(propan-2-yloxy)phenyl]amino}-N-[3-(methylsulfonyl)propyl]-6,7,8,9-tetrahydro-5H-pyrimido[4,5-b]indole-6-carboxamide], for which half-maximal inhibition (IC50) was put at 8 nM.

With `CS(=O)(=O)CCCNC(=O)C1CCc2[nH]c3ncnc(Nc4ccc5[nH]c(=O)sc5c4)c3c2C1` (racemic) [Example 29, (RS)—N-[3-(Methylsulfonyl)propyl]-4-[(2-oxo-2,3-dihydro-1,3-benzothiazol-6-yl)amino]-6,7,8,9-tetrahydro-5H-pyrimido[4,5-b]indole-6-carboxamide], it took 14 nM to reach half-maximal inhibition (IC50).

With `CS(=O)(=O)CCCNC(=O)C1CCc2[nH]c3ncnc(Nc4ccccc4N4CCOCC4)c3c2C1` (racemic) [Example 30, (RS)—N-[3-(Methylsulfonyl)propyl]-4-{[2-(morpholin-4-yl)phenyl]amino}-6,7,8,9-tetrahydro-5H-pyrimido[4,5-b]indole-6-carboxamide], the midpoint of inhibition, the IC50, lay at 52 nM.

Molecule `CS(=O)(=O)CCCNC(=O)C1CCc2[nH]c3ncnc(Nc4ccc(OC(F)F)cc4)c3c2C1` (racemic) [Example 31, (RS)-4-{[4-(Difluoromethoxy)phenyl]amino}-N-[3-(methylsulfonyl)propyl]-6,7,8,9-tetrahydro-5H-pyrimido[4,5-b]indole-6-carboxamide] showed an IC50 of 2750 nM.

Consider `CS(=O)(=O)CCCNC(=O)C1CCc2[nH]c3ncnc(Nc4ccccc4OC(F)(F)F)c3c2C1` (racemic) [Example 32, (RS)—N-[3-(Methylsulfonyl)propyl]-4-{[2-(trifluoromethoxy)phenyl]amino}-6,7,8,9-tetrahydro-5H-pyrimido[4,5-b]indole-6-carboxamide], for which the IC50 was 746 nM.

As to `Cc1cc(=O)oc2cc(Nc3ncnc4[nH]c5c(c34)CC(C(=O)NCCCS(C)(=O)=O)CC5)ccc12` (racemic) [Example 33, (RS)-4-[(4-Methyl-2-oxo-2H-chromen-7-yl)amino]-N-[3-(methylsulfonyl)propyl]-6,7,8,9-tetrahydro-5H-pyrimido[4,5-b]indole-6-carboxamide], the IC50 was 394 nM.

In the case of `COc1cc(Nc2ncnc3[nH]c4c(c23)CC(C(=O)NCCCS(C)(=O)=O)CC4)ccc1F` (racemic) [Example 34, (RS)-4-[(4-Fluoro-3-methoxyphenyl)amino]-N-[3-(methylsulfonyl)propyl]-6,7,8,9-tetrahydro-5H-pyrimido[4,5-b]indole-6-carboxamide], the IC50 was 306 nM.

As to `CC(C)Oc1ccc(Nc2ncnc3[nH]c4c(c23)CC(C(=O)NCCCS(C)(=O)=O)CC4)cc1` (racemic) [Example 35, (RS)—N-[3-(Methylsulfonyl)propyl]-4-{[4-(propan-2-yloxy)phenyl]amino}-6,7,8,9-tetrahydro-5H-pyrimido[4,5-b]indole-6-carboxamide], the IC50 was found to be 9660 nM.
